{"source": "patent US4113714A", "about": "“[Des-Ala^1, Gly^2 -desamino-Cys^3 ]somatostatin” (American Home Products Corporation, priority 1975, dated 1978)", "test_system": "cultured rat pituitary cells", "experiment": "in vitro inhibition of growth hormone secretion by cultured rat pituitary cells (radioimmunoassay)", "assay_type": "cell-based", "conditions": "three hours at 37° C in Eagles medium, control 441±12", "protocol": "The activity of the undecapeptide of this invention was established in both in vitro and in vivo testing procedures, employing modifications of the techniques disclosed by Penso et al., Tissue Culture in Biological Research, Elsevier, 1963, p. 98; Berson et al., Metabolism, 13, 1135(1964).\nThe in vitro tests were conducted by covering cultured rat pituitary cells contained in petri dishes with five milliliter portions of the undecapeptide, as its diacetate salt, in Eagles medium for three hours at 37° C. Three Petri dishes were employed for each solution concentration. The amount of growth hormone produced by the cultured pituitary cells is then compared with growth hormone produced by non-treated cells prepared in identical manner, via growth hormone radioimmunoassay. The difference between the growth hormone produced by treated and non-treated pituitary cells establishes the amount of inhibition by the compound under study.\nThe cultured pituitary cells are prepared by excising and mincing rat pituitary glands followed by enzymatic separation of the cells (collagenase and hyaluronidase) and culture on synthetic nutrient media. When the cells attach themselves to the bottom of the plastic petri dish and cover the nutrient surface, they are washed with Eagles medium containing only inorganic salts, glucose and antibiotics in which state they are ready for use as above described.\nThe activity of the undecapeptide of this invention was compared in vitro with somatostatin with the following results in which the concentration valves given are in nanograms/milliliter: […]"}
{"smiles": "C[C@H](N)C(=O)NCC(=O)N[C@H]1CSSC[C@@H](C(=O)O)NC(=O)[C@H](CO)NC(=O)[C@H]([C@@H](C)O)NC(=O)[C@H](Cc2ccccc2)NC(=O)[C@H]([C@@H](C)O)NC(=O)[C@H](CCCCN)NC(=O)[C@H](Cc2c[nH]c3ccccc23)NC(=O)[C@H](Cc2ccccc2)NC(=O)[C@H](Cc2ccccc2)NC(=O)[C@H](CC(N)=O)NC(=O)[C@H](CCCCN)NC1=O", "note": "[somatostatin]", "values": [{"measurement": "Growth Hormone Secreted", "setting": "compound concentration 10 ng/ml", "result": "260 ± 8", "unit": "ng/mL"}, {"measurement": "Growth Hormone Secreted", "setting": "compound concentration 50 ng/ml", "result": "271 ± 22", "unit": "ng/mL"}, {"measurement": "Growth Hormone Secreted", "setting": "compound concentration 100 ng/ml", "result": "250 ± 13", "unit": "ng/mL"}]}
